Source: patent US11718645B2, “Macrocyclic therapeutic agents, methods of manufacture, and methods of treatment” (University of Florida Research Foundation, Incorporated, priority 2014, dated 2023)

Experiments:
HCT116 cells = test: Cell viability assay (MTT); type: cell-based, human; conditions: for IC50: determined after 48 h (n = 4)
Procedure: Human colon adenocarcinoma HCT116 cells were purchased from ATCC (Manassas, Va.) and cultured in Dulbecco's modified Eagle's medium (Invitrogen, Carlsbad, Calif.) supplemented with 10% fetal bovine serum (HyClone, Logan, Utah) at 37° C. humidified air and 5% CO2.
HCT116 cells were seeded at a density of 1×10^4 cells per well in 96-well plates. 24 h later the cells were treated with various concentrations of apratoxins or solvent control. After 48 h of incubation, cell viability was detected using MTT according to the manufacturer's instructions (Promega, Madison, Wis.).

[1] = test system: met proto-oncogene (MET) receptor; test: Immunoblot analysis for RTK (MET) levels in HCT116 cells; type: cell-based, human; conditions: for activity compared with apratoxin S4 (BK) in all biological assays: HCT116, MET levels, cell viability, VEGF-A secretion
Procedure: HCT116 cells were seeded in 6-well plates at a density of 4×10^5 cells and the next day treated with various concentrations of apratoxins or solvent control. 24 h later, whole cell lysates were collected using PhosphoSafe buffer (EMD Chemicals, Inc, Gibbstown, N.J.). The protein concentration was measured with the BCA Protein Assay kit (Thermo Fisher Scientific, Rockford, Ill.). Lysates containing equal amounts of protein were separated by SDS polyacrylamide gel electrophoresis (4-12%), transferred to polyvinylidene difluoride membranes, probed with primary and secondary antibodies, and detected with the SuperSignal West Femto Maximum Sensitivity Substrate (Thermo Fisher Scientific). Anti-Met and secondary anti-mouse antibodies were from Cell Signaling Technology, Inc. (Danvers, Mass.).

Microsomal stability = type: in vitro ADME, mouse
Procedure: HPLC-MS was done on a 3200 QTRAP (Applied Biosystems) equipped with a Shimadzu (Kyoto, Japan) UFLC System. Mouse serum and harmine were purchased from Sigma-Aldrich. Pooled CD1 mouse liver (female) microsomes were purchased from XenoTech, LCC (Lenexa, Kans.) with protein concentrations of 0.5 mg/ml. HCT116 cell lysates were prepared with PhosphoSafe lysis buffer (Novagen). Protein concentration was determined by using the BCA Assay. Analysis was carried out similarly as previously described [Liu, Y.; Salvador, L. A.; Byeon, S.; Ying, Y.; Kwan, J. C.; Law, B. K.; Hong, J.; Luesch. H. J. Pharmacol. Exp. Ther. 2010, 335, 351-361].
The stability of apratoxin A, S4 (BK), S7 (BL), S8 (BM) and S9 (BN) in the presence of mouse microsomes was determined by using an adaptation of a published procedure [Ackley, D. C.; Rockich, K. T.; Baker, T. R. Optimization in Drug Discovery: In Vitro Methods (Series: Methods in Pharmacology and Toxicology) (eds Yan Z, Caldwell J W) 2004, pp 151-162, Springer, New Jersey]. In brief, microsomes were added to prewarmed phosphate buffer (100 mM, pH 7.4) at 37° C. Apratoxin A, BK, BL, BM, or BN (3 μL) were added to the microsomal preparation followed by NADPH cofactor solution (1.3 mM NADP, 3.3 mM glucose 6-phosphate, 0.4 U/mL glucose-6-phosphate dehydrogenase, 3.3 mM MgCl2). The reaction was allowed to proceed for 3 min to 3 h (7 time points) at 37° C. (thermomixer, 1050 rpm). The reaction was quenched by addition of ethyl acetate and subsequently spiked with harmine. The zero time point was defined by denaturing the microsomes with ethyl acetate before the addition of apratoxins. Incubation of apratoxins with microsomes alone was also performed following the same procedure to determine NADPH-dependent metabolism. The final concentration of the incubation mixture contained 0.5 mg/ml protein concentration and 1 μM apratoxins.
(§1) Analysis of apratoxin A, S4 (BK), S7 (BL), S8 (BM) and S9 (BN) was done by using HPLC-MS [column, Onyx Monolithic C18 (3.0×100 mm), Phenomenex (Torrance, Calif.); solvent, water (solvent A) acetonitrile (solvent B); flow rate, 0.5 ml/min; detection by electrospray ionization-MS in positive ion mode (MRM scan)]. A stepwise gradient elution was used starting at 60% B and 40% A, then increasing to 80% B at 5 min and maintained at this condition for 5 min. Parameters were optimized before analysis by using direct syringe infusion. The retention times (tR, min; MRM ion pair) of the analytes and internal standard are as follows: harmine (2.2; 213.1→169.9), apratoxin A (4.7; 841.4→445.2), apratoxin S4 (BK) (4.1; 828.5→432.2), apratoxin S7 (BL) (4.05; 814.5→418.2), apratoxin S8 (BM) (5.2; 842.5→446.2), apratoxin S9 (BN) (4.9; 828.5→432.2). Compound-dependent parameters used were as follows: apratoxin A, declustering potential (DP) 51, entrance potential (EP) 12, collision energy (CE) 45, collision cell exit potential (CXP) 6, collision cell entrance potential (CEP) 32; and harmine, DP 56.0, EP 4.5, CE 44.0, CXP 5, CEP 16.0. Source gas parameters used were as follows: curtain gas, 15.0; collision gas low, ionspray voltage 5500; temperature, 600.0; ion source gas 150.0; ion source gas 2 60.0.
(§2) Calibration curves for apratoxin A, S4 (BK), S7 (BL), S8 (BM) and S9 (BN) in the presence of mouse serum, HCT116 cell lysates, and aqueous solutions were generated by least-square linear regression analysis of the analyte peak area and internal standard peak area ratio against the nominal concentration of the standard solutions. A linear regression analysis was performed, and the concentration of remaining apratoxins at each time point was determined through interpolation for plasma, cellular, and aqueous stability experiments. The amount of remaining apratoxins with microsome incubation was determined from the peak area ratio of apratoxins at tx (3 min to 3 h) and t0. All calculations were done by using Analyst 1.4.2 (Applied Biosystems) Quantitate Mode.

[2] = Cellular stability in HCT116 cell lysate; type: in vitro ADME, human; conditions: HCT116 protein lysate 0.7 mg/mL, up to 24 h, FIG. 2D
Procedure: Aliquots of HCT116 cell lysates were diluted with 25 mM Tris-HCl buffer, pH 8.0, to give a final reaction volume of 100 μL and protein concentration of 0.7 mg/mL. Cell lysate solutions were incubated with 10 μL of apratoxin A, BK, BL, BM, or BN (25 μg/mL) for 0.25 min to 24 h (nine time points). Remaining apratoxin A, BK, BL, BM, or BN were extracted from the reaction solution at the end of the incubation periods with ethyl acetate using the same procedure as described for the plasma stability assay.
as §1, §2

Structure (SMILES)	IC50 (HCT116 cells)	activity compared with apratoxin S4 (BK) in all biological assays [1]	% remaining (Microsomal stability; microsomes + NADPH, 0 min)	% remaining (Microsomal stability; microsomes + NADPH, 3 min)	% remaining (Microsomal stability; microsomes + NADPH, 5 min)	% remaining (Microsomal stability; microsomes + NADPH, 15 min)	% remaining (Microsomal stability; microsomes + NADPH, 30 min)	% remaining (Microsomal stability; microsomes + NADPH, 60 min)	% remaining (Microsomal stability; microsomes + NADPH, 120 min)	% remaining (Microsomal stability; microsomes only, 0 min)	% remaining (Microsomal stability; microsomes only, 3 min)	% remaining (Microsomal stability; microsomes only, 5 min)	% remaining (Microsomal stability; microsomes only, 15 min)	% remaining (Microsomal stability; microsomes only, 30 min)	% remaining (Microsomal stability; microsomes only, 60 min)	% remaining (Microsomal stability; microsomes only, 120 min)	cellular stability [2]	potency relative to the other apratoxins, cell viability (HCT116 cells)	potency in reducing levels of MET receptor ([1]; HCT116, immunoblot, 24 h, FIG. 1)	potency relative to the other apratoxins, MET levels ([1]; HCT116, immunoblot, FIG. 1)
CC[C@H](C)[C@H]1C(=O)N2CCC[C@@H]2C(=O)O[C@H](C(C)(C)C)C[C@@H](C)C[C@H](O)CC2=N[C@@H](CCC(=O)N[C@@H](Cc3ccc(OC)cc3)C(=O)N(C)[C@@H](C)C(=O)N1C)CS2 [apratoxin S7 (BL), Apratoxin S7]	1.25 nM	retained potent activity	100%	54.95 ± 4.74%	18.70 ± 1.41%	52.40 ± 2.40%	6.10 ± 1.96%	5.41 ± 1.09%	4.30 ± 0.82%	100%	66.60 ± 12.30%	60.50 ± 2.26%	76.55 ± 9.55%	54.80 ± 1.56%	54.50 ± 0.00%	53.85 ± 9.40%	excellent	–	–	–
CC[C@H](C)[C@H]1C(=O)N2CCC[C@@H]2C(=O)O[C@H](C(C)(C)C)C[C@@H](C)C[C@H](O)C(C)(C)C2=N[C@@H](CCC(=O)N[C@@H](Cc3ccc(OC)cc3)C(=O)N(C)[C@@H](C)C(=O)N1C)CS2 [apratoxin S8 (BM), Apratoxin S8]	1.99 nM	retained potent activity	100%	37.20 ± 1.27%	17.30 ± 2.55%	8.28 ± 2.86%	4.83 ± 1.05%	3.55 ± 0.91%	5.01 ± 0.23%	100%	74.10 ± 9.62%	77.45 ± 3.18%	63.45 ± 3.61%	74.75 ± 8.70%	81.25 ± 1.91%	70.05 ± 0.78%	excellent	–	–	–
CC[C@H](C)[C@H]1C(=O)N2CCC[C@@H]2C(=O)O[C@H](C(C)(C)C)C[C@@H](C)C[C@H](O)[C@H](C)C2=N[C@H](CCC(=O)N[C@@H](Cc3ccc(OC)cc3)C(=O)N(C)[C@@H](C)C(=O)N1C)CS2 [apratoxin S9 (BN), Apratoxin S9]	0.69 nM	retained potent activity	100%	51.40 ± 8.06%	17.80 ± 0.28%	3.55 ± 0.25%	3.73 ± 0.25%	6.06 ± 2.40%	5.63 ± 0.18%	100%	83.10 ± 0.42%	71.40 ± 1.27%	45.25 ± 5.30%	56.05 ± 1.06%	48.45 ± 0.92%	56.25 ± 0.21%	excellent	2-3 fold	superior, picomolar (sub-nanomolar) potency	2-3 fold
